Source: patent US11584765B2 (priority 2017, dated 2023)

Test system: C57BL/6 mice
Experiment: animal or person
Format: in vivo
Conditions: Mus musculus, sc, 0.5 h, s.c. administration, 30 min, 55° C. water, read-out: ED50 (mg/kg) at 30 min on C57BL/6 mice in Warm-water Tail-flick Test

Going from `CCOCC1(CCc2ccccc2)CCN(C(CC)(CC)c2ccc(C)nc2)CC1` [Compound 399, 5-(3-(4-(ethoxymethyl)-4-phenethylpiperidin-1-yl)pentan-3-yl)-2-methylpyridine] to `CCOCC1(CCc2ccccc2)CCN(C(CC)c2cnc(C)cc2CC)CC1` (stereo not shown) [Compound 400, 5-(1-(4-(ethoxymethyl)-4-phenethylpiperidin-1-yl)propyl)-4-ethyl-2-methylpyridine], the ED50 falls from greater than 10 mg/kg to less than 10 mg/kg.

`CCOC(C)(C)[C@@]1(CCc2cccs2)CCN(C(C)(C)c2ccc(C)nc2)C1` [Compound 402, (S)-5-(2-(3-(2-ethoxypropan-2-yl)-3-(2-(thiophen-2-yl)ethyl)pyrrolidin-1-yl)propan-2-yl)-2-methylpyridine] and `Cc1ccc(C(C)(C)N2CC[C@@](CO)(CCc3cccs3)C2)cn1` [Compound 411, (S)-(1-(2-(6-methylpyridin-3-yl)propan-2-yl)-3-(2-(thiophen-2-yl)ethyl)pyrrolidin-3-yl)methanol] cannot be ordered by ED50: less than 10 mg/kg for the first, less than 10 mg/kg for the second.

`CCOC(C)(C)[C@@]1(CCc2cccs2)CCN(C(C)c2ccc(C)nc2C)C1` (stereo partly drawn) [Compound 403, 3-(1-((S)-3-(2-ethoxypropan-2-yl)-3-(2-(thiophen-2-yl)ethyl)pyrrolidin-1-yl)ethyl)-2,6-dimethylpyridine] and `CCOC[C@@]1(CCc2cccs2)CCN(Cc2c(C)ccnc2C)C1` [Compound 404, (S)-3-((3-(ethoxymethyl)-3-(2-(thiophen-2-yl)ethyl)pyrrolidin-1-yl)methyl)-2,4-dimethylpyridine] cannot be ordered by ED50: less than 10 mg/kg for the first, less than 10 mg/kg for the second.

Going from `CCOC[C@@]1(CCc2cccs2)CCN(Cc2cccnn2)C1` [Compound 405, (S)-3-((3-(ethoxymethyl)-3-(2-(thiophen-2-yl)ethyl)pyrrolidin-1-yl)methyl)pyridazine] to `CCOC[C@@]1(CCc2cccs2)CCN(Cc2cccnc2C)C1` [Compound 428, (S)-3-((3-(ethoxymethyl)-3-(2-(thiophen-2-yl)ethyl)pyrrolidin-1-yl)methyl)-2-methylpyridine], the ED50 falls from greater than 10 mg/kg to less than 10 mg/kg.

First: CCOC[C@@]1(CCc2cccnn2)CCN(Cc2cccnc2)C1 [Compound 406, (S)-3-(2-(3-(ethoxymethyl)-1-(pyridin-3-ylmethyl)pyrrolidin-3-yl)ethyl)pyridazine]
Second: CCOC[C@@]1(CCc2ccccn2)CCN(Cc2cccnc2)C1 [Compound 420]
The ED50 of the first is higher: greater than 10 mg/kg for the first, less than 10 mg/kg for the second.

`CCOC[C@@]1(CCc2ccc(C)s2)CCN(Cc2cnn(C)c2)C1` [Compound 407, (S)-4-((3-(ethoxymethyl)-3-(2-(5-methylthiophen-2-yl)ethyl)pyrrolidin-1-yl)methyl)-1-methyl-1H-pyrazole] and `CCOC[C@@]1(CCc2cccs2)CCN(Cc2cnn(C)c2)C1.Cl` [Compound 430, (S)-4-((3-(ethoxymethyl)-3-(2-(thiophen-2-yl)ethyl)pyrrolidin-1-yl)methyl)-1-methyl-1H-pyrazole HCl] cannot be ordered by ED50: less than 10 mg/kg for the first, less than 10 mg/kg for the second.

`CCOC[C@@]1(CCc2ccc(C)s2)CCN(Cc2ccc(C)nc2)C1` [Compound 408, (S)-5-((3-(ethoxymethyl)-3-(2-(5-methylthiophen-2-yl)ethyl)pyrrolidin-1-yl)methyl)-2-methylpyridine] and `CCOC[C@@]1(CCc2ccc(C)s2)CCN(Cc2ccc(C)nc2C)C1` [Compound 409, (S)-3-((3-(ethoxymethyl)-3-(2-(5-methylthiophen-2-yl)ethyl)pyrrolidin-1-yl)methyl)-2,6-dimethylpyridine] cannot be ordered by ED50: less than 10 mg/kg for the first, less than 10 mg/kg for the second.

`c1ccc(C2(CCc3cccs3)CCN(Cc3cccnc3)CC2)nc1` [Compound 410, 2-(1-(pyridin-3-ylmethyl)-4-(2-(thiophen-2-yl)ethyl)piperidin-4-yl)pyridine] and `Cc1ccc(CN2CCC(CCc3ccccc3)(c3ccccn3)CC2)cn1` [Compound 432, 2-methyl-5-((4-phenethyl-4-(pyridin-2-yl)piperidin-1-yl)methyl)pyridine] cannot be ordered by ED50: less than 10 mg/kg for the first, less than 10 mg/kg for the second.

`OC[C@@]1(CCc2cccs2)CCN(Cc2cccnc2)C1` [Compound 412, (S)-(1-(pyridin-3-ylmethyl)-3-(2-(thiophen-2-yl)ethyl)pyrrolidin-3-yl)methanol] and `Cc1ccc(CN2CC[C@@](CO)(CCc3cccs3)C2)cn1` [Compound 413, (S)-(1-((6-methylpyridin-3-yl)methyl)-3-(2-(thiophen-2-yl)ethyl)pyrrolidin-3-yl)methanol] cannot be ordered by ED50: less than 10 mg/kg for the first, less than 10 mg/kg for the second.

`CC(c1cccnc1)N1CC[C@@](CO)(CCc2cccs2)C1` (stereo partly drawn) [Compound 414, ((3S)-1-(1-(pyridin-3-yl)ethyl)-3-(2-(thiophen-2-yl)ethyl)pyrrolidin-3-yl)methanol] and `CC(C)(c1cccnc1)N1CC[C@@](CO)(CCc2cccs2)C1` [Compound 415] cannot be ordered by ED50: less than 10 mg/kg for the first, less than 10 mg/kg for the second.

`CCOC[C@@]1(CCc2cccs2)CCN(Cc2c(C)cc(C)nc2C)C1` [Compound 416, (S)-3-((3-(ethoxymethyl)-3-(2-(thiophen-2-yl)ethyl)pyrrolidin-1-yl)methyl)-2,4,6-trimethylpyridine] and `CCOCC1(CCc2cccs2)CN(Cc2ccc(C)nc2)C1` [Compound 429, 5-((3-(ethoxymethyl)-3-(2-(thiophen-2-yl)ethyl)azetidin-1-yl)methyl)-2-methylpyridine] cannot be ordered by ED50: less than 10 mg/kg for the first, less than 10 mg/kg for the second.

`Cn1cc(CN2CCC(CCc3ccccc3)(c3ccccn3)CC2)cn1` [Compound 417, 2-(1-((1-methyl-1H-pyrazol-4-yl)methyl)-4-phenethylpiperidin-4-yl)pyridine] and `CC(C)(c1cccnc1)N1CCC(CCc2ccccc2)(c2ccccn2)CC1` [Compound 433, 2-(4-phenethyl-1-(2-(pyridin-3-yl)propan-2-yl)piperidin-4-yl)pyridine] cannot be ordered by ED50: less than 10 mg/kg for the first, less than 10 mg/kg for the second.

First: Cc1ccc(CN2[C@@H](C)CC(CCc3ccc(F)cc3)(c3ccccn3)C[C@@H]2C)cn1 (stereo partly drawn) [Compound 418, 5-(((2S,6S)-4-(4-fluorophenethyl)-2,6-dimethyl-4-(pyridin-2-yl)piperidin-1-yl)methyl)-2-methylpyridine]
Second: CCOC[C@@]1(COc2ccc(F)cc2)CCN(Cc2ccc(C)nc2)C1 [Compound 426, (R)-5-((3-(ethoxymethyl)-3-((4-fluoro-phenoxy)methyl)pyrrolidin-1-yl)methyl)-2-methylpyridine]
The ED50 of the first is higher: greater than 10 mg/kg for the first, less than 10 mg/kg for the second.

`CCOC[C@@]1(COc2ccccc2)CCN(Cc2ccc(C)nc2)C1` [Compound 419, (R)-5-((3-(ethoxymethyl)-3-(phenoxy-methyl)pyrrolidin-1-yl)methyl)-2-methylpyridine] and `CCOC[C@@]1(COc2ccccc2)CCN(Cc2cccnc2)C1.Cl` [Compound 444, (R)-3-((3-(ethoxymethyl)-3-(phenoxy-methyl)pyrrolidin-1-yl)methyl)pyridine HCl] cannot be ordered by ED50: less than 10 mg/kg for the first, less than 10 mg/kg for the second.

`CCOC[C@@]1(CN(C)c2ccccc2)CCN(Cc2ccc(C)nc2)C1` [Compound 421, (S)-N-((3-(ethoxymethyl)-1-((6-methylpyridin-3-yl)methyl)pyrrolidin-3-yl)methyl)-N-methylaniline] and `CCOC[C@@]1(CN(C)c2ccccc2)CCN(Cc2cccnc2)C1.Cl` [Compound 443, (S)-N-((3-(ethoxymethyl)-l-(pyridin-3-ylmethyl)pyrrolidin-3-yl)methyl)-N-methylaniline HCl] cannot be ordered by ED50: less than 10 mg/kg for the first, less than 10 mg/kg for the second.

`CCOCC1(CCC2CC2)CCN(Cc2ccc(C)nc2)C1` (stereo not shown) [Compound 427, 5-((3-(2-cyclopropylethyl)-3-(ethoxy-methyl)pyrrolidin-1-yl)methyl)-2-methylpyridine] and `CCOCC1(CCC2CC2)CCN(C(C)(C)c2ccc(C)nc2)C1` (stereo not shown) [Compound 431, 5-(2-(3-(2-cyclopropylethyl)-3-(ethoxy-methyl)pyrrolidin-1-yl)propan-2-yl)-2-methylpyridine] cannot be ordered by ED50: less than 10 mg/kg for the first, less than 10 mg/kg for the second.

`CCOC[C@@]1(CCc2ccc(F)cc2)CCN(C2(c3ccc(C)nc3)CC2)C1` [Compound 434, (S)-5-(1-(3-(ethoxymethyl)-3-(4-fluoro-phenethyl)pyrrolidin-1-yl)cyclopropyl)-2-methylpyridine] and `CCOC[C@@]1(CCc2ccc(F)s2)CCN(C2(c3ccc(C)nc3)CC2)C1` [Compound 435] cannot be ordered by ED50: less than 10 mg/kg for the first, less than 10 mg/kg for the second.

Compared with `CCOC[C@@]1(CCc2ccc(F)cc2)CCN(C2(c3cnc(C)cc3CC)CC2)C1` [Compound 436, (S)-5-(1-(3-(ethoxymethyl)-3-(4-fluoro-phenethyl)pyrrolidin-1-yl)cyclopropyl)-4-ethyl-2-methylpyridine], `CCOCC1(CCc2ccccc2)CCN(N(C)c2ccc(C)nc2)C1` (stereo not shown) [Compound 438, N-(3-(ethoxymethyl)-3-phenethylpyrrolidin-1-yl)-N,6-dimethylpyridin-3-amine] is higher in ED50: less than 10 mg/kg for the first, greater than 10 mg/kg for the second.

`CCOC[C@@]1(CCc2ccc(C)cc2)CCN(Cc2cccnc2)C1` [Compound 437, (S)-3-((3-(ethoxymethyl)-3-(4-methyl-phenethyl)pyrrolidin-1-yl)methyl)pyridine] and `CCOC[C@@]1(CCc2cccc(F)c2)CCN(Cc2cccnc2)C1` [Compound 441, (S)-3-((3-(ethoxymethyl)-3-(3-fluoro-phenethyl)pyrrolidin-1-yl)methyl)pyridine] cannot be ordered by ED50: less than 10 mg/kg for the first, less than 10 mg/kg for the second.

`CCOC[C@@]1(CCc2ccc(F)cn2)CCN(Cc2cnc3ccccc3c2)C1` [Compound 439, (S)-3-((3-(ethoxymethyl)-3-(2-(5-fluoropyridin-2-yl)ethyl)pyrrolidin-1-yl)methyl)quinoline] and `CCOC[C@@]1(CCc2ccccc2F)CCN(Cc2cccnc2)C1` [Compound 440] cannot be ordered by ED50: less than 10 mg/kg for the first, less than 10 mg/kg for the second.

`CCOC[C@@]1(CNc2ccccc2)CCN(Cc2ccc(C)nc2)C1.Cl` [Compound 442, (R)-N-((3-(ethoxymethyl)-1-((6-methylpyridin-3-yl)methyl)pyrrolidin-3-yl)methyl)aniline HCl] and `CCOC[C@@]1(CCc2nccn2C)CCN(C(C)(C)c2ccc(C)nc2)C1.Cl` [Compound 445, (S)-5-(2-(3-(ethoxymethyl)-3-(2-(1-methyl-1H-imidazol-2-yl)ethyl)pyrrolidin-1-yl)propan-2-yl)-2-methylpyridine HCl] cannot be ordered by ED50: less than 10 mg/kg for the first, less than 10 mg/kg for the second.

In the case of `CCOC[C@@]1(CCc2nccn2C)CCN(C(C)c2ccc(C)nc2)C1.Cl` (stereo partly drawn) [Compound 446, 5-(1-((S)-3-(ethoxymethyl)-3-(2-(1-methyl-1H-imidazol-2-yl)ethyl)pyrrolidin-1-yl)ethyl)-2-methylpyridine HCl], the ED50 is reported as less than 10 mg/kg.
